# Read-outs that look alike come from different tables or passages of the source. Numbered stars: 1 amine (or outer) side, 2 acyl side, 3 side chain; on linkers, the order of the positions; unused ones are H or OH. Square brackets hold non-standard residues; d marks the D form. Peptide text beside a SMILES is read from it. X1 = CC(C)[C@H](C)N(CC(=O)[*:2])[*:1]; Nspe = C[C@H](NCC(=O)O)c1ccccc1; Nlys = NCCCCNCC(=O)O
# What was measured:
# Type in all cases: cell-based
# [1] = tested on: B. subtilis (ATCC 6633); settings: ATCC 6633
# Procedure, shortened: (§1)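 MICs by broth microdilution per CLSI M7-A6 in cation-adjusted Mueller-Hinton broth, using 2:1 serial dilutions of peptoid and a bacterial inoculum of 1×10^6 CFU/mL. Values reproducible over three experiments, each with two parallel trials.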
# [2] = tested on: E. coli (ATCC 35218); settings: ATCC 35218
# Procedure, shortened: as §1
# [3] = tested on: Staphylococcus aureus NRS120
# Method: (§2) Antibacterial assays. MICs were determined according to CLSI M7-A6 protocols in a 96-well microtiter plate. In test wells, 50 μL bacterial inoculum (5×10^5 CFU/ml) in Mueller-Hinton broth (MHB) was added to 50 μL peptoid solution in MHB (prepared by 1:2 serial dilutions). Positive controls contained 50 μL inoculum and 50 μL MHB without peptoid. […] MIC values reported were reproducible between three independent experimental replicates, each consisting of two parallel trials. Broad-spectrum antimicrobial susceptibility testing was performed against BSL2 pathogens by Nova Biologicals, Inc. (Conroe, Tex.).
# (§3) Broad-spectrum antibacterial assays. MICs of compounds were determined by microdilution procedure in Mueller-Hinton broth (MHB) in accordance with CLSI M7-A6 protocols in a manner similar to that described for the screen antibacterial assays. Inoculated microtiter plates were incubated at 35° C. for 24 hours prior to the result being recorded. Four ATCC strains that were used as standards are recommended by CLSI: Pseudomonas aeruginosa ATCC 27853, Escherichia coli ATCC 25922, Staphylococcus aureus ATCC 29213 and Enterococcus faecalis ATCC 29212. Other strains from the ATCC collection include Proteus vulgaris ATCC 49132, Proteus mirabilis ATCC 35659, Klebsiella pneumoniae ATCC 33495, Enterobacter aerogenes ATCC 35029 and Serratia marcescens ATCC 13880. S. aureus NRS100 (COL) is a well characterized methicillian-resistant S. aureus (MRSA) strain. The strains S. aureus VAN1 and S. aureus VAN2, vancomycin-resistant MRSA strains that were isolated in Michigan and Pennsylvania, were the first vancomycin-resistant strains clinically isolated. S. aureus NRS119 and S. aureus NRS120 are linezolid-resistant isolates from the Network on Antimicrobial Resistance in S. aureus (NARSA) collection. E. faecalis 99 and E. faecium 106 are vancomycin-resistant enterococcal strains.
# [4] = tested on: Escherichia coli ATCC 25922
# Method: as §2, §3
# [5] = tested on: Staphylococcus aureus NRS100 (COL)
# Method: as §2, §3
# [6] = tested on: Enterococcus faecalis 99
# Method: as §2, §3
# [7] = tested on: Serratia marcescens ATCC 13880; settings: ATCC 13880
# Method: as §2, §3
# [8] = tested on: Enterococcus faecalis ATCC 29212
# Method: as §2, §3
# [9] = tested on: Proteus vulgaris ATCC 49132
# Method: as §2, §3
# [10] = tested on: Proteus mirabilis ATCC 35659; settings: ATCC 35659
# Method: as §2, §3
# [11] = tested on: Staphylococcus aureus VAN1
# Method: as §2, §3
# [12] = tested on: Staphylococcus aureus VAN2
# Method: as §2, §3
# [13] = tested on: Pseudomonas aeruginosa ATCC 27853
# Method: as §2, §3
# [14] = tested on: Klebsiella pneumoniae ATCC 33495
# Method: as §2, §3
# [15] = tested on: Enterobacter aerogenes ATCC 35029
# Method: as §2, §3
# [16] = tested on: Enterococcus faecium 106
# Method: as §2, §3
# [17] = tested on: Staphylococcus aureus ATCC 29213
# Method: as §2, §3
# [18] = tested on: Staphylococcus aureus NRS119
# Method: as §2, §3
# [19] = Table 7A, MRSA, vancomycin-resistant
B. subtilis MIC [1] [µM],MIC Staphylococcus aureus NRS120 [3] [µM],MIC Escherichia coli ATCC 25922 [4] [µM],MIC Staphylococcus aureus NRS100 (COL) [5] [µM],MIC Enterococcus faecalis 99 [6] [µM],MIC S. marcescens ATCC 13880 [7] [mg/L],MIC Serratia marcescens ATCC 13880 [7] [µM],MIC Enterococcus faecalis ATCC 29212 [8] [µM],MIC Proteus vulgaris ATCC 49132 [9] [µM],MIC P. mirabilis ATCC 35659 [10] [mg/L],MIC Proteus mirabilis ATCC 35659 [10] [µM],MIC Staphylococcus aureus VAN1 [11] [µM],MIC Staphylococcus aureus VAN2 [12] [µM],MIC Pseudomonas aeruginosa ATCC 27853 [13] [µM],MIC Klebsiella pneumoniae ATCC 33495 [14] [µM],MIC Enterobacter aerogenes ATCC 35029 [15] [µM],MIC Enterococcus faecium 106 [16] [µM],MIC Staphylococcus aureus ATCC 29213 [17] [µM],MIC Staphylococcus aureus NRS119 [18] [µM],SMILES,further results
1.6,9.1,9.1,4.6,36.5,>128,>72.9,4.6,18.2,>128,>72.9,4.6,4.6,18.2,9.1,72.9,2.3,4.6,9.1,"C[C@@H](c1ccccc1)N(CC(N)=O)C(=O)CN(C(=O)CN(CCCCN)C(=O)CN(C(=O)CN(C(=O)CN(CCCCN)C(=O)[C@@H]1CCCN1C(=O)CN(C(=O)CN(CCCCN)C(=O)CN(C(=O)CN(C(=O)CNCCCCN)[C@@H](C)c1ccccc1)[C@@H](C)c1ccccc1)[C@@H](C)c1ccccc1)[C@@H](C)c1ccccc1)[C@@H](C)c1ccccc1)[C@@H](C)c1ccccc1 [1-Pro6, H-Nlys-Nspe-Nspe-Nlys-Nspe-L-Pro-(Nlys-Nspe-Nspe)2-NH2] (H-[Nlys][Nspe][Nspe][Nlys][Nspe]P[Nlys][Nspe][Nspe][Nlys][Nspe][Nspe]-NH2)",E. coli MIC [2]: 12.5 µM
0.78,9.5,4.8,4.8,38.0,>128,>76.0,4.8,19.0,>128,>76.0,4.8,4.8,9.5,4.8,19.0,2.4,4.8,9.5,"CC(C)[C@H](C)N(CC(=O)N(CC(=O)N(CCCCN)CC(=O)N(CC(=O)N(CC(=O)N(CCCCN)CC(=O)N(CC(=O)N(CC(=O)N(CCCCN)CC(=O)N(CC(=O)N(CC(N)=O)[C@@H](C)c1ccccc1)[C@@H](C)C(C)C)[C@@H](C)c1ccccc1)[C@@H](C)C(C)C)[C@@H](C)c1ccccc1)[C@@H](C)C(C)C)[C@@H](C)c1ccccc1)C(=O)CNCCCCN [1-Nsdp2,5,8,11, H-(Nlys-Nsdp-Nspe)4-NH2] (H-[Nlys][X1][Nspe][Nlys][X1][Nspe][Nlys][X1][Nspe][Nlys][X1][Nspe]-NH2)","E. coli MIC ([2]; Table 6): 12.5 µM; MIC S. aureus NRS120 ([3]; Table 7A, linezolid-resistant): 16 mg/L; MIC E. coli ATCC 25922 ([4]; Table 7A): 8 mg/L; MIC S. aureus NRS100 (COL) ([5]; Table 7A, MRSA): 8 mg/L; MIC E. faecalis 99 ([6]; Table 7A): 64 mg/L; MIC E. faecalis ATCC 29212 ([8]; Table 7A): 8 mg/L; MIC P. vulgaris ATCC 49132 ([9]; Table 7A): 32 mg/L; MIC S. aureus VAN1 [11, 19]: 8 mg/L; MIC S. aureus VAN2 [12, 19]: 8 mg/L; MIC P. aeruginosa ATCC 27853 ([13]; Table 7A): 16 mg/L; MIC K. pneumoniae ATCC 33495 ([14]; Table 7A): 8 mg/L; MIC E. aerogenes ATCC 35029 ([15]; Table 7A): 32 mg/L; MIC E. faecium 106 ([16]; Table 7A): 4 mg/L; MIC S. aureus ATCC 29213 ([17]; Table 7A): 8 mg/L; MIC S. aureus NRS119 ([18]; Table 7A, linezolid-resistant): 16 mg/L"

# — patent US20100036088A1, “Selective poly-N-substituted glycine antibiotics” (priority 2008, published 2010)
